Measured values from paper PMC5785490, “Retinoic acid prevents immunogenicity of milk lipocalin Bos d 5 through binding to its immunodominant T-cell epitope” (Scientific Reports, 2018).

Molecular target: T1, Bos d 5 (bovine beta-lactoglobulin) (Bos taurus, UniProt P02754)
T1 construct: gene LGB; commercially available bovine beta-lactoglobulin (L0130, Sigma); globular protein of 162 amino acid residues
Test: intrinsic tryptophan fluorescence quenching (pH […] °C), supported by ANS displacement assay
Type: binding

T1 sequence (P02754 17-178): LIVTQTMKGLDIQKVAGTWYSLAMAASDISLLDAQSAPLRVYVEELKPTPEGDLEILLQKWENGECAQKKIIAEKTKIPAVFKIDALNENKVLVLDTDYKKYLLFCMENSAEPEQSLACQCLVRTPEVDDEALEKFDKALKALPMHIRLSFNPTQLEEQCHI

## CC1=C(/C=C/C(C)=C/C=C/C(C)=C/C(=O)O)C(C)(C)CCC1 [RA, all trans-retinoic acid]
  Kd: 6.1 µM
